# Patent publication EP0025288A1, “Derivatives of monic acid, processes for their preparation, compositions containing them and their preparation” (priority 1979, dated 1981)
# Legend:
# Past multocida PA1 = assay: MIC, veterinary bacteria; assay type: cell-based; conditions: veterinary bacteria (Table 2), read-out: MIC
# M pulmonis JB [1] = assay: MIC, anti-mycoplasmal, Friis' broth microtiter method; assay type: cell-based; conditions: read-out: in vitro MIC, BROTH
# M hyorhinis ATCC 23234 = assay: MIC, anti-mycoplasmal, serial dilution in Friis' agar; assay type: cell-based; conditions: read-out: in vitro MIC, AGAR
# M hyosynoviae ATCC 25591 = assay: as above; assay type: cell-based; conditions: read-out: in vitro MIC, AGAR
# M pneumoniae 427a [2] = assay: MIC, anti-mycoplasmal, Friis' broth microtiter method; assay type: cell-based; conditions: read-out: in vitro MIC, BROTH
# Strep uberis SPU1 = assay: MIC, veterinary bacteria; assay type: cell-based; conditions: veterinary bacteria (Table 2), read-out: MIC
# [3] = tested on: Erysipelothrix rhusiopathiae NCTC 8163; assay: MIC, veterinary bacteria; assay type: cell-based; conditions: NCTC8163, veterinary bacteria (Table 2), read-out: MIC
# [4] = tested on: Strep suis (group D) SPS11; assay: MIC, veterinary bacteria; assay type: cell-based; conditions: veterinary bacteria (Table 2), read-out: MIC
# M pneumoniae ATCC 15492 [5] = assay: MIC, anti-mycoplasmal, Friis' broth microtiter method; assay type: cell-based; conditions: read-out: in vitro MIC, BROTH
# M dispar H225 = assay: as above; assay type: cell-based; conditions: read-out: in vitro MIC, BROTH
# [6] = tested on: Corynebacterium pyogenes CY1; assay: MIC, veterinary bacteria; assay type: cell-based; conditions: veterinary bacteria (Table 2), read-out: MIC
# Bord bronchiseptica BO8 = assay: MIC, veterinary bacteria; assay type: cell-based; conditions: veterinary bacteria (Table 2), read-out: MIC
# E coli NCTC 10418 = assay: MIC, veterinary bacteria; assay type: cell-based; conditions: veterinary bacteria (Table 2), read-out: MIC
# M synoviae ATCC 25204 = assay: MIC, anti-mycoplasmal, serial dilution in Friis' agar; assay type: cell-based; conditions: read-out: in vitro MIC, AGAR
# M pulmonis JB [7] = assay: as above; assay type: cell-based; conditions: read-out: in vitro MIC, AGAR
# Past Haemolytica PA5 = assay: MIC, veterinary bacteria; assay type: cell-based; conditions: veterinary bacteria (Table 2), read-out: MIC
# [8] = tested on: Staph aureus B4 (pen resis); assay: MIC, veterinary bacteria; assay type: cell-based; conditions: Staphylococcus aureus, veterinary bacteria (Table 2), read-out: MIC
# M fermentans MWKL4 [9] = assay: MIC, anti-mycoplasmal, serial dilution in Friis' agar; assay type: cell-based; conditions: read-out: in vitro MIC, AGAR
# Staph aureus Oxford = assay: MIC, veterinary bacteria; assay type: cell-based; conditions: Staphylococcus aureus, veterinary bacteria (Table 2), read-out: MIC
# M fermentans MWKL4 [10] = assay: MIC, anti-mycoplasmal, Friis' broth microtiter method; assay type: cell-based; conditions: read-out: in vitro MIC, BROTH
# S dublin S7 = assay: MIC, veterinary bacteria; assay type: cell-based; conditions: veterinary bacteria (Table 2), read-out: MIC
# M alkalescens NCTC 10135 = assay: MIC, anti-mycoplasmal, serial dilution in Friis' agar; assay type: cell-based; conditions: read-out: in vitro MIC, AGAR
# M arthritidis ATCC 14124 = assay: as above; assay type: cell-based; conditions: read-out: in vitro MIC, AGAR
# [11] = Serum binding by ultrafiltration; assay type: in vitro ADME, pig; conditions: pig, serum, compounds at 8 mcg/ml, microbiological assay (B. subtilis ATCC 6633), read-out: % bound to pig serum (converted)
# Description: Serum binding was assessed by ultrafiltration of procine serum containing compounds at 8 mcg/ml, and through an Amicon CF50A ultrafiltration cone. Separation of ultrafiltrate was achieved by centrifugation.
# Bord bronchisptica BO9 = assay: MIC, veterinary bacteria; assay type: cell-based; conditions: veterinary bacteria (Table 2), read-out: MIC
# M dispar NCTC 10125 = assay: MIC, anti-mycoplasmal, Friis' broth microtiter method; assay type: cell-based; conditions: read-out: in vitro MIC, BROTH
# M suipneumoniae Str 11 = assay: as above; assay type: cell-based; conditions: read-out: in vitro MIC, BROTH
# S typhimurium S18 = assay: MIC, veterinary bacteria; assay type: cell-based; conditions: veterinary bacteria (Table 2), read-out: MIC
# Strep dysgalaciae SPD1 = assay: MIC, veterinary bacteria; assay type: cell-based; conditions: veterinary bacteria (Table 2), read-out: MIC
# Past multocida PA2 = assay: MIC, veterinary bacteria; assay type: cell-based; conditions: veterinary bacteria (Table 2), read-out: MIC
# [12] = tested on: M suipneumoniae J2206/183b; assay: MIC, anti-mycoplasmal, Friis' broth microtiter method; assay type: cell-based; conditions: read-out: in vitro MIC, BROTH
# M pneumoniae ATCC 15492 [13] = assay: MIC, anti-mycoplasmal, serial dilution in Friis' agar; assay type: cell-based; conditions: read-out: in vitro MIC, AGAR
# M pneumoniae 427a [14] = assay: as above; assay type: cell-based; conditions: read-out: in vitro MIC, AGAR
# E coli E1 = assay: MIC, veterinary bacteria; assay type: cell-based; conditions: veterinary bacteria (Table 2), read-out: MIC
# [15] = tested on: M bovigenitalium ATCC 14173; assay: MIC, anti-mycoplasmal, serial dilution in Friis' agar; assay type: cell-based; conditions: read-out: in vitro MIC, AGAR
# Strep agalactiae SPA1 = assay: MIC, veterinary bacteria; assay type: cell-based; conditions: veterinary bacteria (Table 2), read-out: MIC
# M gallisepticum S6 = assay: MIC, anti-mycoplasmal, serial dilution in Friis' agar; assay type: cell-based; conditions: read-out: in vitro MIC, AGAR
# [16] = tested on: Staph aureus 152 (pen sens); assay: MIC, veterinary bacteria; assay type: cell-based; conditions: Staphylococcus aureus, veterinary bacteria (Table 2), read-out: MIC
# M bovis ATCC 25025 = assay: MIC, anti-mycoplasmal, serial dilution in Friis' agar; assay type: cell-based; conditions: read-out: in vitro MIC, AGAR
# M bovis NCTC 10131 = assay: as above; assay type: cell-based; conditions: read-out: in vitro MIC, AGAR
Structure (SMILES),MIC (Past multocida PA1) [µg/mL],MIC (M pulmonis JB [1]) [µg/mL],MIC (M hyorhinis ATCC 23234) [µg/mL],MIC (M hyosynoviae ATCC 25591) [µg/mL],MIC (M pneumoniae 427a [2]) [µg/mL],MIC (Strep uberis SPU1) [µg/mL],MIC [3] [µg/mL],MIC [4] [µg/mL],MIC (M pneumoniae ATCC 15492 [5]) [µg/mL],MIC (M dispar H225) [µg/mL],MIC (Bord bronchiseptica BO8) [µg/mL],MIC (E coli NCTC 10418) [µg/mL],MIC (M synoviae ATCC 25204) [µg/mL],MIC (M pulmonis JB [7]) [µg/mL],MIC (Past Haemolytica PA5) [µg/mL],MIC [8] [µg/mL],MIC (M fermentans MWKL4 [9]) [µg/mL],MIC (Staph aureus Oxford) [µg/mL],MIC (M fermentans MWKL4 [10]) [µg/mL],MIC (S dublin S7) [µg/mL],other results
"CC(=O)COC(=O)C=C(C)CC1OCC(CC2OC2C(C)C(C)O)C(O)C1O (centres unmarked) [Example 1, Acetvlmethvl Monate A]",0.625,0.156,2.5,1.25,> 10,2.5,> 80,40,> 10,0.156,> 80,> 80,< 0.02,0.156,5,2.5,0.312,2.5,0.078,> 80,MIC [6]: > 80 µg/mL; MIC (M alkalescens NCTC 10135): 0.039 µg/mL; MIC (M arthritidis ATCC 14124): > 10 µg/mL; fraction unbound [11]: 0.772; MIC (Bord bronchisptica BO9): 40 µg/mL; MIC (M dispar NCTC 10125): 0.156 µg/mL; MIC (M suipneumoniae Str 11): 0.625 µg/mL; MIC (S typhimurium S18): > 80 µg/mL; MIC (Strep dysgalaciae SPD1): 5 µg/mL; MIC (Past multocida PA2): 0.312 µg/mL; MIC [12]: 1.25 µg/mL; MIC (M pneumoniae ATCC 15492 [13]): > 10 µg/mL; MIC (M pneumoniae 427a [14]): 10 µg/mL; MIC (E coli E1): > 80 µg/mL; MIC [15]: 0.078 µg/mL; MIC (Strep agalactiae SPA1): 5 µg/mL; MIC (M gallisepticum S6): > 10 µg/mL; MIC [16]: 2.5 µg/mL
"CC(=O)CCCOC(=O)C=C(C)CC1OCC(CC2OC2C(C)C(C)O)C(O)C1O (centres unmarked) [Example 2, 3-Acetvlpropvl Monate A]",0.312,< 0.02,0.312,0.078,0.625,0.312,80,10,0.312,≤ 0.02,40,> 80,< 0.02,≤ 0.02,5,1.25,≤ 0.02,1.25,< 0.02,> 80,MIC (M bovis ATCC 25025): < 0.02 µg/mL; MIC (M alkalescens NCTC 10135): < 0.02 µg/mL; MIC (M arthritidis ATCC 14124): 2.5 µg/mL; fraction unbound [11]: 0.76; MIC (Bord bronchisptica BO9): 5 µg/mL; MIC (M dispar NCTC 10125): ≤ 0.02 µg/mL; MIC (M suipneumoniae Str 11): 0.156 µg/mL; MIC (S typhimurium S18): > 80 µg/mL; MIC (Strep dysgalaciae SPD1): 1.25 µg/mL; MIC (Past multocida PA2): 0.039 µg/mL; MIC [12]: 0.312 µg/mL; MIC (M pneumoniae ATCC 15492 [13]): 0.312 µg/mL; MIC (M pneumoniae 427a [14]): 0.312 µg/mL; MIC (E coli E1): > 80 µg/mL; MIC [15]: ≤ 0.02 µg/mL; MIC (Strep agalactiae SPA1): 2.5 µg/mL; MIC (M gallisepticum S6): 2.5 µg/mL; MIC [16]: 1.25 µg/mL; MIC (M bovis NCTC 10131): < 0.02 µg/mL
